Reference: article PMC6203334 (Medicinal chemistry research : an international journal for …, 2018)

Experiments:
Assay type in all cases: cell-based
[1] = test system: Leishmania donovani axenic amastigotes; experiment: In vitro antileishmanial assay, axenic amastigotes; details: for IC50: read-out: L. donovani Axenic amastigotes IC50; for IC90: read-out: L. donovani Axenic amastigotes IC90
[2] = test system: Leishmania donovani promastigotes; experiment: In vitro antileishmanial assay, promastigotes; details: for IC50: read-out: L. donovani promastigotes IC50; for IC90: read-out: L. donovani promastigotes IC90
[3] = test system: Plasmodium falciparum chloroquine sensitive (D6, Sierra Leone); experiment: In vitro antimalarial assay; details: D6, read-out: P. falciparum IC50 (D6)
[4] = test system: Plasmodium falciparum chloroquine resistant (W2, Indo China); experiment: In vitro antimalarial assay; details: W2, read-out: P. falciparum IC50 (W2)
[5] = test system: Blood stage forms of Trypanosoma brucei brucei; experiment: In vitro antitrypanosomal assay; details: NA: not active

Compound	IC50 [1]	IC90 [1]	IC50 [2]	IC90 [2]	IC50 [3]	IC50 [4]	T. brucei IC9 ([5]; Table 3)	IC50 ([5]; read-out: Trypanosoma brucei IC50)	IC90 ([5]; read-out: Trypanosoma brucei IC90)
C[C@@H]1[C@H](O)[C@@H](C)/C=C/C=C/C=C/C=C/C=C/C=C/C=C/[C@H](O[C@@H]2O[C@H](C)[C@@H](O)[C@H](N)[C@@H]2O)C[C@@H]2O[C@](O)(C[C@@H](O)C[C@@H](O)[C@H](O)CC[C@@H](O)C[C@@H](O)CC(=O)O[C@H]1C)C[C@H](O)[C@H]2C(=O)O [Amp B, Amphotericin B]	1730 nM	2000 nM	192 nM	312 nM					
CCN(CC)CCCC(C)Nc1ccnc2cc(Cl)ccc12 (stereo not shown) [CQ, chloroquine]					52 nM	460 nM			
NCCCC(N)(C(=O)O)C(F)F (stereo not shown) [DFMO, difluoromethylornithine]							59.175 ± 5.748 µM	21300 ± 2010 nM	59200 ± 5750 nM
N=C(N)c1ccc(OCCCCCOc2ccc(C(=N)N)cc2)cc1 [Pent, pentamidine]	15300 nM	16900 nM	2040 nM	3670 nM					
